Measured values as given in patent US11208381B2, “Indole derivatives and their use as protein kinase inhibitors” (RespiVert Limited, priority 2016, dated 2021).

How the values were obtained:
PDGFRβ = PDGFRβ (Homo sapiens (Human), UniProt P09619); experiment: PDGFRβ enzyme inhibition (ADP-Glo assay); assay type: biochemical; details: mean, n = 2 (nintedanib n = 34)
[1] = Pharmacokinetic measurements in rats, intra-tracheal dosing; assay type: in vivo; details: rat; for Lung conc i.t./i.v. Ratio at time 0.1 h / Lung conc i.t./i.v. Ratio at time 1.5 h / Lung conc i.t./i.v. Ratio at time 6 h / Lung conc i.t./i.v. Ratio at time 24 h: i.t. versus i.v.; for concentration at 0.1 h: read-out: lung concentration (nM) at time 0.1 h; for concentration at 1.5 h: read-out: lung concentration (nM) at time 1.5 h; for concentration at 6 h: read-out: lung concentration (nM) at time 6 h; for concentration at 24 h: read-out: lung concentration (nM) at time 24 h; for Kp at 0.1 h / Kp at 1.5 h / Kp at 6 h / Kp at 24 h: lung/plasma; for Kp at 0.1 h: read-out: lung/plasma conc ratio at time 0.1 h; for Kp at 1.5 h: read-out: lung/plasma conc ratio at time 1.5 h; for Kp at 6 h: read-out: lung/plasma conc ratio at time 6 h; for Kp at 24 h: read-out: lung/plasma conc ratio at time 24 h
[2] = Pharmacokinetic measurements in rats, intravenous dosing; assay type: in vivo; details: rat; for concentration at 0.1 h: read-out: lung concentration (nM) at time 0.1 h; for concentration at 1.5 h: read-out: lung concentration (nM) at time 1.5 h; for concentration at 6 h: read-out: lung concentration (nM) at time 6 h; for concentration at 24 h: read-out: lung concentration (nM) at time 24 h; for Kp at 0.1 h / Kp at 1.5 h / Kp at 6 h / Kp at 24 h: lung/plasma; for Kp at 0.1 h: read-out: lung/plasma ratio at time 0.1 h; for Kp at 1.5 h: read-out: lung/plasma ratio at time 1.5 h; for Kp at 6 h: read-out: lung/plasma ratio at time 6 h; for Kp at 24 h: read-out: lung/plasma ratio at time 24 h
PAMPA permeability assay = assay type: in vitro ADME; details: PAMPA experimental recovery
[3] = male, CD, lung, other: intra-tracheal
[4] = male, CD, other: intra-tracheal

Chain of PDGFRβ (P09619 33-1106): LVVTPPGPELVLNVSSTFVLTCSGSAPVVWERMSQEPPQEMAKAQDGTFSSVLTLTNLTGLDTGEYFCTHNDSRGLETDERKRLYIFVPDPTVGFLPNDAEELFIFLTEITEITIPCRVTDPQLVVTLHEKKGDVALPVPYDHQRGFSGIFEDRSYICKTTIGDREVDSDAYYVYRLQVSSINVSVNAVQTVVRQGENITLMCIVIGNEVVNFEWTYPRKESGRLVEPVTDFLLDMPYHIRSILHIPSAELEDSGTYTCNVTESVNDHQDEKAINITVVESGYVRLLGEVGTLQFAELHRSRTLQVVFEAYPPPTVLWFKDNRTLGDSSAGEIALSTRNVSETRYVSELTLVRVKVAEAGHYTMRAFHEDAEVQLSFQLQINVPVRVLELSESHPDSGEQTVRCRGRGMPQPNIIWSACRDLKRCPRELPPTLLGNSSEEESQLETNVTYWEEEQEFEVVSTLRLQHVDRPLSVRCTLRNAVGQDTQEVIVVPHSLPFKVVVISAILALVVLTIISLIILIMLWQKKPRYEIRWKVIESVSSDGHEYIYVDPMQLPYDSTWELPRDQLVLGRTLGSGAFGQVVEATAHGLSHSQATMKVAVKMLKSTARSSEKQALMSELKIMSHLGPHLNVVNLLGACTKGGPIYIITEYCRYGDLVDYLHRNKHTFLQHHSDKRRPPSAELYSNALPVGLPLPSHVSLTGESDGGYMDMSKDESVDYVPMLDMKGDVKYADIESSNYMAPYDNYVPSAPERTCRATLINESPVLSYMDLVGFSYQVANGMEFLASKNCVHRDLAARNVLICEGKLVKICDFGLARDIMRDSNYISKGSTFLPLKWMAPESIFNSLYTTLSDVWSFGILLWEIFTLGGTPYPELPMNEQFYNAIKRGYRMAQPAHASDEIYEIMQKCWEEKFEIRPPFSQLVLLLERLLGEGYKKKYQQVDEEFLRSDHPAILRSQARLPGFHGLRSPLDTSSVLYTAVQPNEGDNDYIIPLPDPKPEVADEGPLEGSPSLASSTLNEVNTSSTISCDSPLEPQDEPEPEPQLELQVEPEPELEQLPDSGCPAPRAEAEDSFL

Row | Ki (PDGFRβ) | Lung conc i.t./i.v. Ratio at time 0.1 h ([1]; 0.1 h) | Lung conc i.t./i.v. Ratio at time 1.5 h ([1]; 1.5 h) | Lung conc i.t./i.v. Ratio at time 6 h ([1]; 6 h) | Lung conc i.t./i.v. Ratio at time 24 h ([1]; 24 h) | concentration at 0.1 h ([2]; male, CD, lung, iv) | concentration at 1.5 h ([2]; male, CD, lung, iv) | Kp at 0.1 h ([2]; male, CD, iv) | Kp at 1.5 h ([2]; male, CD, iv) | concentration at 0.1 h [1, 3] | concentration at 1.5 h [1, 3] | concentration at 6 h [1, 3] | concentration at 24 h [1, 3] | Kp at 0.1 h [1, 4] | Kp at 1.5 h [1, 4] | Kp at 6 h [1, 4] | Kp at 24 h [1, 4] | Compound | further results
1 | 12.9 nM | 7 | 12 | 2 | 7 | 765 nM | 330 nM | 127 | > 188 | 5510 nM | 4020 nM | 1070 nM | 1670 nM | 371 | > 2280 | > 606 | > 951 | COC(=O)c1cc2c(cc1C)/C(=C(/Nc1ccc(C(=O)NCCN3CCCN(C)CC3)cc1)c1ccccc1)C(=O)N2 [Example 5, (Z)-Methyl 5-methyl-3-(((4-((2-(4-methyl-1,4-diazepan-1-yl)ethyl)carbamoyl)phenyl)amino)(phenyl)methylene)-2-oxoindoline-6-carboxylate] | concentration at 6 h ([2]; male, CD, lung, iv): 499 nM; concentration at 24 h ([2]; male, CD, lung, iv): 247 nM; Kp at 6 h ([2]; male, CD, iv): > 284; Kp at 24 h ([2]; male, CD, iv): > 140
2 | – | 12 | 51 | 45 | 21 | – | – | – | – | – | – | – | – | – | – | – | – | COC(=O)c1cc2c(cc1C)/C(=C(/Nc1ccc(C(=O)NCCN3CCNC(=O)C3)cc1)c1ccccc1)C(=O)N2 [Example 9, (Z)-Methyl 5-methyl-2-oxo-3-(((4-((2-(3-oxopiperazin-1-yl)ethyl)carbamoyl)phenyl)amino)(phenyl)methylene)indoline-6-carboxylate] | –
3 | 8.75 nM | – | – | – | – | – | – | – | – | – | – | – | – | – | – | – | – | COC(=O)c1cc2c(cc1C)/C(=C(/Nc1ccc(C(=O)NCCN3CCC(O)CC3)cc1)c1ccccc1)C(=O)N2 [Example 12, (Z)-Methyl 3-(((4-((2-(4-hydroxypiperidin-1-yl)ethyl)carbamoyl)phenyl)amino)(phenyl)methylene)-5-methyl-2-oxoindoline-6-carboxylate] | –

Further lines, the compound ahead of its results:

Row | Compound | Ki (PDGFRβ) | Lung conc i.t./i.v. Ratio at time 0.1 h ([1]; 0.1 h) | Lung conc i.t./i.v. Ratio at time 1.5 h ([1]; 1.5 h) | Lung conc i.t./i.v. Ratio at time 6 h ([1]; 6 h) | Lung conc i.t./i.v. Ratio at time 24 h ([1]; 24 h) | concentration at 0.1 h ([2]; male, CD, lung, iv) | concentration at 1.5 h ([2]; male, CD, lung, iv) | Kp at 0.1 h ([2]; male, CD, iv) | Kp at 1.5 h ([2]; male, CD, iv) | concentration at 0.1 h [1, 3] | concentration at 1.5 h [1, 3] | concentration at 6 h [1, 3] | concentration at 24 h [1, 3] | Kp at 0.1 h [1, 4] | Kp at 1.5 h [1, 4] | Kp at 6 h [1, 4] | Kp at 24 h [1, 4] | further results
4 | COC(=O)c1cc2c(cc1C)/C(=C(/Nc1ccc(S(=O)(=O)NCCN3CCN(C)CC3)cc1)c1ccccc1)C(=O)N2 [Example 1, (Z)-Methyl 5-methyl-3-(((4-(N-(2-(4-methylpiperazin-1-yl)ethyl)sulfamoyl)phenyl)amino)(phenyl)methylene)-2-oxoindoline-6-carboxylate] | 9.93 nM | – | – | – | – | – | – | – | – | – | – | – | – | – | – | – | – | –
5 | COC(=O)c1cc2c(cc1C)/C(=C(/Nc1ccc(C(=O)NCC3CCN(C)CC3)cc1)c1ccccc1)C(=O)N2 [Example 3, (Z)-Methyl 5-methyl-3-(((4-(((1-methylpiperidin-4-yl)methyl)carbamoyl)phenyl)amino)(phenyl)methylene)-2-oxoindoline-6-carboxylate] | – | 3 | 7 | 15 | 14 | – | – | – | – | – | – | – | – | – | – | – | – | –
6 | COC(=O)c1cc2c(cc1C)/C(=C(/Nc1ccc(C(=O)NCCN3CCC(N(C)C)CC3)cc1)c1ccccc1)C(=O)N2 [Example 6, (Z)-Methyl 3-(((4-((2-(4-(dimethylamino)piperidin-1-yl)ethyl)carbamoyl)phenyl)amino)(phenyl)methylene)-5-methyl-2-oxoindoline-6-carboxylate] | 10.3 nM | 9.8 | 8.0 | 8.3 | 7.7 | 1000 nM | 949 nM | 77 | > 558 | 9830 nM | 7570 nM | 7820 nM | 6440 nM | 472 | > 4450 | > 4600 | > 3790 | concentration at 6 h ([2]; male, CD, lung, iv): 939 nM; concentration at 24 h ([2]; male, CD, lung, iv): 837 nM; Kp at 6 h ([2]; male, CD, iv): > 552; Kp at 24 h ([2]; male, CD, iv): > 492
7 | COC(=O)c1cc2c(cc1C)/C(=C(/Nc1ccc(C(=O)NCC(=O)N3CCN(CCO)CC3)cc1)c1ccccc1)C(=O)N2 [Example 7, (Z)-Methyl 3-(((4-((2-(4-(2-hydroxyethyl)piperazin-1-yl)-2-oxoethyl)carbamoyl)phenyl)amino)(phenyl)methylene)-5-methyl-2-oxoindoline-6-carboxylate] | 5.76 nM | – | – | >42 | >10 | 99 nM | 44 nM | 2 | 12 | 1530 nM | 886 nM | 116 nM | 27 nM | 39 | > 265 | > 35 | > 8 | –
8 | COC(=O)c1cc2c(cc1C)/C(=C(/Nc1ccc(C(=O)NCC(=O)N3CCN(C)CC3)cc1)c1ccccc1)C(=O)N2 [Example 8, (Z)-Methyl 5-methyl-3-(((4-((2-(4-methylpiperazin-1-yl)-2-oxoethyl)carbamoyl)phenyl)amino)(phenyl)methylene)-2-oxoindoline-6-carboxylate] | 8.12 nM | – | – | – | – | – | – | – | – | – | – | – | – | – | – | – | – | –
9 | COC(=O)c1cc2c(cc1C)/C(=C(/Nc1ccc(C(=O)NC3CCN(C)CC3)cc1)c1ccccc1)C(=O)N2 [Example 18, (Z)-Methyl-5-methyl-3-(((4-((1-methylpiperidin-4-yl)carbamoyl)phenyl)amino)(phenyl)methylene)-2-oxoindoline-6-carboxylate] | – | – | – | – | – | – | – | – | – | – | – | – | – | – | – | – | – | % Recovery (PAMPA permeability assay): 84.5%; t½ ([2]; i.v. dose 0.1 (nintedanib 0.42)): 5.1 h; concentration at 0.1 h ([2]; i.v. dose 0.1 (nintedanib 0.42), 0.1 h): 638 nM; concentration at 1.5 h ([2]; i.v. dose 0.1 (nintedanib 0.42), 1.5 h): 306 nM; concentration at 6 h ([2]; i.v. dose 0.1 (nintedanib 0.42), 6 h): 201 nM; concentration at 0.1 h ([1]; i.t. dose 0.1 (nintedanib 0.42), 0.1 h): 6533 nM; concentration at 1.5 h ([1]; i.t. dose 0.1 (nintedanib 0.42), 1.5 h): 5987 nM; concentration at 6 h ([1]; i.t. dose 0.1 (nintedanib 0.42), 6 h): 2351 nM; concentration at 24 h ([1]; i.t. dose 0.1 (nintedanib 0.42), 24 h): 4523 nM
